Results published in ChEMBL document CHEMBL1201862, “PubChem BioAssay data set” (2004).
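Exposure lasted 48 hours, with cells grown in 96-well plates and compounds tested at five concentrations. Here, GI50 denotes the concentration required for 50% inhibition of growth.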 Calls of active or inactive are those of the source. Cut-off read from the data, not from the text of the source: active = GI50 up to about 1.1 µM and inactive = higher.

Columns and labels:
Assay in all cases: NCI anticancer screen, dose series, 48 h
HL-60 = tested on: HL-60
HCT-15 = tested on: HCT-15
SW-620 = tested on: SW-620
OVCAR-3 = tested on: OVCAR-3
RPMI-8226 = tested on: RPMI-8226
ACHN = tested on: ACHN
KM12 = tested on: KM12
HCT-116 = tested on: HCT-116
CAKI-1 = tested on: CAKI-1
SF-539 = tested on: SF-539
K562 = tested on: K562
NCI-H460 = tested on: NCI-H460
U-251 = tested on: U-251
Malme-3M = tested on: Malme-3M
LOX IMVI = tested on: LOX IMVI
SK-OV-3 = tested on: SK-OV-3
NCI-H226 = tested on: NCI-H226
A498 = tested on: A498

Structure (SMILES)	GI50 (HL-60)	GI50 (HCT-15) [µM]	GI50 (SW-620)	GI50 (OVCAR-3)	GI50 (RPMI-8226)	GI50 (ACHN)	GI50 (KM12)	GI50 (HCT-116)	GI50 (CAKI-1)	GI50 (SF-539)	GI50 (K562)	GI50 (NCI-H460)	GI50 (U-251)	GI50 (Malme-3M)	GI50 (LOX IMVI)	GI50 (SK-OV-3)	GI50 (NCI-H226)	GI50 (A498)
COP(=O)(OC)/C(=N\Nc1ccc([N+](=O)[O-])cc1)NCc1ccccc1	21.2 µM (inactive)	32.4	35.6 µM (inactive)	33.4 µM (inactive)	19.2 µM (inactive)	28 µM (inactive)	24.5 µM (inactive)	21 µM (inactive)	38.6 µM (inactive)	17.7 µM (inactive)	27.5 µM (inactive)	27.8 µM (inactive)	23.4 µM (inactive)	38.5 µM (inactive)	–	–	–	–
Cc1ccc(NC(=O)CC(=O)n2nc(-c3ccccc3)c(/N=N\c3ccccc3[N+](=O)[O-])c2-c2ccccc2)cc1	86.5 µM (inactive)	–	> 100 µM (inactive)	82.8 µM (inactive)	> 100 µM (inactive)	89.3 µM (inactive)	> 100 µM (inactive)	70.3 µM (inactive)	69.7 µM (inactive)	37.2 µM (inactive)	> 100 µM (inactive)	35.8 µM (inactive)	52.5 µM (inactive)	86.1 µM (inactive)	93.5 µM (inactive)	80.2 µM (inactive)	–	–
O=c1[nH]c(C2CCCCC2)nc2cc(Cl)ccc12	–	> 100	> 100 µM (inactive)	> 100 µM (inactive)	> 100 µM (inactive)	> 100 µM (inactive)	> 100 µM (inactive)	> 100 µM (inactive)	> 100 µM (inactive)	> 100 µM (inactive)	> 100 µM (inactive)	–	> 100 µM (inactive)	> 100 µM (inactive)	–	> 100 µM (inactive)	> 100 µM (inactive)	–
O=S(=O)(NCn1ccc2ccccc21)c1ccccc1	22.4 µM (inactive)	> 57.7	38.4 µM (inactive)	> 100 µM (inactive)	21.5 µM (inactive)	97.5 µM (inactive)	> 60.7 µM (inactive)	49.3 µM (inactive)	–	> 100 µM (inactive)	> 100 µM (inactive)	> 100 µM (inactive)	> 100 µM (inactive)	> 100 µM (inactive)	66.5 µM (inactive)	> 100 µM (inactive)	> 100 µM (inactive)	> 100 µM (inactive)
CC/C(CC(=O)CCC(=O)Nc1ccc(C)c(C)c1)=N\NC(=O)C(N)=O	> 100 µM (inactive)	> 100	> 100 µM (inactive)	> 100 µM (inactive)	> 100 µM (inactive)	> 100 µM (inactive)	–	> 100 µM (inactive)	> 100 µM (inactive)	> 100 µM (inactive)	> 100 µM (inactive)	–	> 100 µM (inactive)	> 100 µM (inactive)	–	> 100 µM (inactive)	> 100 µM (inactive)	> 100 µM (inactive)
COC(=O)CCC(=O)CC1CC(=O)C2CCCN12 (stereo not given)	> 100 µM (inactive)	–	> 100 µM (inactive)	> 100 µM (inactive)	> 100 µM (inactive)	> 100 µM (inactive)	> 100 µM (inactive)	> 100 µM (inactive)	> 100 µM (inactive)	> 100 µM (inactive)	> 100 µM (inactive)	> 100 µM (inactive)	> 100 µM (inactive)	> 100 µM (inactive)	> 100 µM (inactive)	> 100 µM (inactive)	> 100 µM (inactive)	> 100 µM (inactive)
COc1c(NC(C)=O)cc(C)cc1NC(C)=O	> 100 µM (inactive)	> 100	> 100 µM (inactive)	> 100 µM (inactive)	> 100 µM (inactive)	> 100 µM (inactive)	> 100 µM (inactive)	> 100 µM (inactive)	> 100 µM (inactive)	> 100 µM (inactive)	> 100 µM (inactive)	> 100 µM (inactive)	> 100 µM (inactive)	–	> 100 µM (inactive)	> 100 µM (inactive)	–	> 100 µM (inactive)
Cc1ccc2nc3cc(C)c(=O)cc-3sc2c1	3.11 µM (inactive)	52.8	> 100 µM (inactive)	> 100 µM (inactive)	–	57.7 µM (inactive)	54.1 µM (inactive)	> 100 µM (inactive)	39.7 µM (inactive)	> 100 µM (inactive)	13.6 µM (inactive)	> 100 µM (inactive)	75 µM (inactive)	> 100 µM (inactive)	–	> 100 µM (inactive)	73.1 µM (inactive)	–
CCC[S+]([O-])c1nc(COC(=O)NC)c(COC(=O)NC)n1C (stereo not given)	> 100 µM (inactive)	> 100	> 100 µM (inactive)	> 100 µM (inactive)	> 100 µM (inactive)	–	> 100 µM (inactive)	> 100 µM (inactive)	> 100 µM (inactive)	> 100 µM (inactive)	> 100 µM (inactive)	> 100 µM (inactive)	> 100 µM (inactive)	> 100 µM (inactive)	> 100 µM (inactive)	> 100 µM (inactive)	> 100 µM (inactive)	> 100 µM (inactive)
